Measured values reported in US20260070945A1, “MACROCYCLIC IMMUNOMODULATORS” (Bristol-Myers Squibb Company, priority 2022, published 2026).
*1 amine or outer side, *2 acyl side, *3 side chain or, on linkers, in order; H or OH if unused. Where a SMILES comes first, the peptide text is derived from it. Bridges are numbered along the chain shown (N, C = ends). [ ]: non-standard residue; d: D form. The star is where a group is joined. ξ: configuration not given here. Phe(3-CF3) = N[C@@H](Cc1cccc(C(F)(F)F)c1)C(=O)O; Phe(4-COOH) = N[C@@H](Cc1ccc(C(=O)O)cc1)C(=O)O; Bip = N[C@@H](Cc1ccc(-c2ccccc2)cc1)C(=O)O; NH(CH2)14COOH = O=C(O)CCCCCCCCCCCCCCN*; Phe(3-Me) = Cc1cccc(C[C@H](N)C(=O)O)c1; γGlu = O=C(O)[C@H](CCC(=O)[*:2])N[*:1]; NH(CH2)12COOH = O=C(O)CCCCCCCCCCCCN*; Val(3-OH) = CC(C)(O)[C@H](N)C(=O)O; mTyr = N[C@@H](Cc1cccc(O)c1)C(=O)O; Cha = N[C@@H](CC1CCCCC1)C(=O)O; Cit = NC(=O)NCCC[C@H](N)C(=O)O; Ile(3ξ) = CCC(C)[C@H](N)C(=O)O; Thr(3ξ) = CC(O)[C@H](N)C(=O)O; 12Ado = NCCCCCCCCCCCC(=O)O; hSer = N[C@@H](CCO)C(=O)O; Carboxymethyl = O=C(O)C*; NMeA = CN[C@@H](C)C(=O)O; Orn = NCCC[C@H](N)C(=O)O; Aun = NCCCCCCCCCCC(=O)O; Dab = NCC[C@H](N)C(=O)O; Dap = NC[C@H](N)C(=O)O; AEEA = NCCOCCOCC(=O)O; X12 = CC(C)(F)C(=O)*

What follows are compounds tested against T1, PD-1/PD-L1 interaction (PE-labeled human PD-L1-Ig binding to Jurkat cell line over-expressing human PD-1) (Homo sapiens, UniProt Q15116) (assay: Jurkat-PD-1 Cell Binding High-Content Screening Assay (CBA)). Conditions: Jurkat-hPD-1 cells, PE-labeled PD-L1-Ig 20 nM final; read-out: Jurkat HPD1 PDL1 IC50.
T1 construct: expressed in transfected cells; host or cells: Jurkat
Outline: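 High-content imaging read-out of PE-PD-L1-Ig binding (20 nM final, 1 h) to Jurkat-hPD-1 cells, after 2 h compound exposure at 37 °C in DMEM with 10% FCS. Nuclei counterstained with Hoechst 33342 after paraformaldehyde fixation.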

T1 sequence (Q15116 25-288): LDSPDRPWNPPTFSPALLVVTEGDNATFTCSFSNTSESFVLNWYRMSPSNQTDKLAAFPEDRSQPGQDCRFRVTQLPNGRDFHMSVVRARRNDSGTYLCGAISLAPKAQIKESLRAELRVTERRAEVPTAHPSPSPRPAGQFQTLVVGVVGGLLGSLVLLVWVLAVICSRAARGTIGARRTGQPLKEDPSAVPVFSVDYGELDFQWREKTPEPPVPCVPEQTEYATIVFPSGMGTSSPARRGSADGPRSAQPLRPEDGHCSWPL

IC50	Compound
132 nM	CCC(C)[C@@H]1NC(=O)[C@H](Cc2ccc(-c3ccccc3)cc2)NC(=O)[C@H](CC(C)C)NC(=O)[C@H](Cc2cccc(C)c2)NC(=O)[C@H](CC(=O)O)NC(=O)[C@H](Cc2ccc(O)cc2)NC(=O)[C@H](Cc2ccccc2)NC(=O)CSC[C@@H](C(=O)N[C@@H](CN)C(=O)NCCCCCCCCCCC(=O)O)NC(=O)[C@H](CCCN)NC(=O)[C@H](C(C)C)NC(=O)[C@H](CC(C)C)NC(=O)[C@H](CCN)NC(=O)[C@@H](C)NC(=O)[C@H](C)N(C)C1=O (stereo partly drawn) [Example 2199] ({CH2CO}-FYD[Phe(3-Me)]L[Bip][Ile(3ξ)][NMeA][dA][Dab]LV[Orn]C[Dap][Aun]-OH; thioether N-14)
17.4 nM	Cc1cccc(C[C@@H]2NC(=O)[C@H](CC(=O)O)NC(=O)[C@H](Cc3ccc(OCC(=O)O)cc3)NC(=O)[C@H]([C@@H](C)O)NC(=O)CSC[C@@H](C(=O)N[C@@H](CCCN)C(=O)NCCOCCOCC(=O)NCCCCCCCCCCC(=O)O)NC(=O)[C@H](CC(N)=O)NC(=O)[C@H](C(C)C)NC(=O)[C@H](CC3CCCCC3)NC(=O)[C@H](CCN)NC(=O)[C@@H](CC(C)C)NC(=O)[C@H](C)N(C)C(=O)[C@H](Cc3ccc(OCC(=O)O)cc3)NC(=O)[C@H](Cc3ccc(-c4ccccc4)cc3)NC(=O)[C@H](Cc3ccc(OCC(=O)O)cc3)NC2=O)c1 [Example 1374] ({CH2CO}-TY(Carboxymethyl)D[Phe(3-Me)]Y(Carboxymethyl)[Bip]Y(Carboxymethyl)[NMeA][dL][Dab][Cha]VNC[Orn][AEEA][Aun]-OH; thioether N-14)
502 nM	CC(C)[C@@H]1NC(=O)[C@H](CC2CCCCC2)NC(=O)[C@H](CCN)NC(=O)[C@@H](C)NC(=O)[C@H](C)N(C)C(=O)[C@H](Cc2ccc(O)cc2)NC(=O)[C@H](Cc2ccc(-c3ccccc3)cc2)NC(=O)[C@H](Cc2ccc(O)cc2)NC(=O)[C@H](Cc2cccc(O)c2)NC(=O)[C@H](CC(=O)O)NC(=O)[C@H](Cc2ccc(OCC(=O)O)cc2)NC(=O)[C@H](CN)NC(=O)CSC[C@@H](C(=O)N[C@@H](CCN)C(=O)NCCCCCCCCCCC(=O)O)NC(=O)[C@H](CCCN)NC1=O [Example 1256] ({CH2CO}-[Dap]Y(Carboxymethyl)D[mTyr]Y[Bip]Y[NMeA][dA][Dab][Cha]V[Orn]C[Dab][Aun]-OH; thioether N-14)
94.4 nM	Cc1cccc(C[C@@H]2NC(=O)[C@H](CC(=O)O)NC(=O)[C@H](Cc3ccc(OCC(=O)O)cc3)NC(=O)[C@H](CCCNC(=O)C(C)(C)F)NC(=O)CSC[C@@H](C(=O)N[C@@H](CCCN)C(=O)N[C@@H](CO)C(=O)NCCCCCCCCCCCC(=O)O)NC(=O)[C@H](C(C)O)NC(=O)[C@H](C(C)C)NC(=O)[C@H](CC3CCCCC3)NC(=O)[C@H](CCN)NC(=O)[C@@H](CC(C)C)NC(=O)[C@H](C)N(C)C(=O)[C@H](CCCNC(N)=O)NC(=O)[C@H](Cc3ccc(-c4ccccc4)cc3)NC(=O)[C@H](Cc3ccc(O)cc3)NC2=O)c1 (stereo partly drawn) [Example 2401] ({CH2CO}-[Orn](X12)Y(Carboxymethyl)D[Phe(3-Me)]Y[Bip][Cit][NMeA][dL][Dab][Cha]V[Thr(3ξ)]C[Orn]S[12Ado]-OH; thioether N-14)
54 nM	COC[C@@H]1NC(=O)CSC[C@@H](C(=O)N[C@@H](CCN)C(=O)NCCOCCOCC(=O)N[C@@H](CCC(=O)NCCOCCOCC(=O)NCCCCCCCCCCCCC(=O)O)C(=O)O)NC(=O)[C@H](CO)NC(=O)[C@H](C(C)(C)O)NC(=O)[C@H](CC2CCCCC2)NC(=O)[C@H](CCN)NC(=O)[C@@H](CC(C)C)NC(=O)[C@H](C)N(C)C(=O)[C@H](Cc2ccc(C(=O)O)cc2)NC(=O)[C@H](Cc2ccc(-c3ccccc3)cc2)NC(=O)[C@H](Cc2ccc(C(=O)O)cc2)NC(=O)[C@H](Cc2cccc(C(F)(F)F)c2)NC(=O)[C@H](CC(=O)O)NC(=O)[C@H](Cc2ccc(OCC(=O)O)cc2)NC1=O [Example 1170] ({CH2CO}-S(Me)Y(Carboxymethyl)D[Phe(3-CF3)][Phe(4-COOH)][Bip][Phe(4-COOH)][NMeA][dL][Dab][Cha][Val(3-OH)]SC[Dab][AEEA][γGlu][AEEA]-{NH(CH2)12COOH}; thioether N-14)
13.9 nM	Cc1cccc(C[C@@H]2NC(=O)[C@H](CC(=O)O)NC(=O)[C@H](Cc3ccc(OCC(=O)O)cc3)NC(=O)[C@H]([C@@H](C)O)NC(=O)CSC[C@@H](C(=O)N[C@@H](CCN)C(=O)NCCOCCOCC(=O)NCCCCCCCCCCC(=O)O)NC(=O)[C@H](CC(N)=O)NC(=O)[C@H](C(C)C)NC(=O)[C@H](CC3CCCCC3)NC(=O)[C@H](CCN)NC(=O)[C@@H](CC(C)C)NC(=O)[C@H](C)N(C)C(=O)[C@H](Cc3ccc(OCC(=O)O)cc3)NC(=O)[C@H](Cc3ccc(-c4ccccc4)cc3)NC(=O)[C@H](Cc3ccc(OCC(=O)O)cc3)NC2=O)c1 [Example 1370] ({CH2CO}-TY(Carboxymethyl)D[Phe(3-Me)]Y(Carboxymethyl)[Bip]Y(Carboxymethyl)[NMeA][dL][Dab][Cha]VNC[Dab][AEEA][Aun]-OH; thioether N-14)
14 nM	CC(C)C[C@H]1NC(=O)[C@H](C)N(C)C(=O)[C@H](CCC(N)=O)NC(=O)[C@H](Cc2ccc(-c3ccccc3)cc2)NC(=O)[C@H](Cc2ccc(C(=O)O)cc2)NC(=O)[C@H](Cc2cccc(C(F)(F)F)c2)NC(=O)[C@H](CC(=O)O)NC(=O)[C@H](Cc2ccc(OCC(=O)O)cc2)NC(=O)[C@H](Cc2ccc(C(=O)O)cc2)NC(=O)CSC[C@@H](C(=O)N[C@@H](CCN)C(=O)NCCCCCCCCCCCCC(=O)O)NC(=O)[C@H](CO)NC(=O)[C@H](C(C)(C)O)NC(=O)[C@H](CC2CCCCC2)NC(=O)[C@H](CCN)NC1=O [Example 1144] ({CH2CO}-[Phe(4-COOH)]Y(Carboxymethyl)D[Phe(3-CF3)][Phe(4-COOH)][Bip]Q[NMeA][dL][Dab][Cha][Val(3-OH)]SC[Dab]-{NH(CH2)12COOH}; thioether N-14)
15.6 nM	CC(C)C[C@H]1NC(=O)[C@H](C)N(C)C(=O)[C@H](CCCNC(N)=O)NC(=O)[C@H](Cc2ccc(-c3ccccc3)cc2)NC(=O)[C@H](C(C)C)NC(=O)[C@H](Cc2c[nH]c3ccccc23)NC(=O)[C@H](CC(=O)O)NC(=O)[C@H](Cc2ccc(OCC(=O)O)cc2)NC(=O)[C@H](Cc2ccc(OCC(=O)O)cc2)NC(=O)CSC[C@@H](C(=O)NCCOCCOCC(=O)NCCCCCCCCCCC(=O)O)NC(=O)[C@H](CCO)NC(=O)[C@H](C(C)C)NC(=O)[C@H](CC2CCCCC2)NC(=O)[C@H](CCN)NC1=O [Example 2319] ({CH2CO}-Y(Carboxymethyl)Y(Carboxymethyl)DWV[Bip][Cit][NMeA][dL][Dab][Cha]V[hSer]C[AEEA][Aun]-OH; thioether N-14)

Same assay, conditions: PE-labeled PD-L1-Ig 20 nM final, Jurkat-hPD-1 cells; read-out: Jurkat HPD1 PDL1 IC50

IC50	Compound
1.2 nM	Cc1cccc(C[C@@H]2NC(=O)[C@H](CC(=O)O)NC(=O)[C@H](Cc3ccc(OCC(=O)O)cc3)NC(=O)[C@H]([C@@H](C)O)NC(=O)CSC[C@@H](C(=O)N[C@@H](CCN)C(=O)NCCOCCOCC(=O)NCCCCCCCCCCCC(=O)O)NC(=O)[C@H](CCC(=O)O)NC(=O)[C@H](C(C)C)NC(=O)[C@H](CC3CCCCC3)NC(=O)[C@H](CCN)NC(=O)[C@@H](CC(C)C)NC(=O)[C@H](C)N(C)C(=O)[C@H](Cc3ccc(O)cc3)NC(=O)[C@H](Cc3ccc(-c4ccccc4)cc3)NC(=O)[C@H](Cc3ccc(OCC(=O)O)cc3)NC2=O)c1 [Example 2665] ({CH2CO}-TY(Carboxymethyl)D[Phe(3-Me)]Y(Carboxymethyl)[Bip]Y[NMeA][dL][Dab][Cha]VEC[Dab][AEEA][12Ado]-OH; thioether N-14)
37.9 nM	CC(C)C[C@@H]1NC(=O)[C@H](Cc2c[nH]c3ccccc23)NC(=O)[C@H](CC(=O)O)NC(=O)[C@H](Cc2ccc(OCC(=O)O)cc2)NC(=O)[C@H](Cc2ccc(OCC(=O)O)cc2)NC(=O)CSC[C@@H](C(=O)NCCOCCOCC(=O)NCCCCCCCCCCC(=O)O)NC(=O)[C@H](Cc2c[nH]cn2)NC(=O)[C@H](C(C)C)NC(=O)[C@H](CC2CCCCC2)NC(=O)[C@H](CCN)NC(=O)[C@@H](CC(C)C)NC(=O)[C@H](C)N(C)C(=O)[C@H](C(C)C)NC(=O)[C@H](Cc2ccc(-c3ccccc3)cc2)NC1=O [Example 2442] ({CH2CO}-Y(Carboxymethyl)Y(Carboxymethyl)DWL[Bip]V[NMeA][dL][Dab][Cha]VHC[AEEA][Aun]-OH; thioether N-14)
190 nM	CC(C)C[C@H]1NC(=O)[C@H](C)N(C)C(=O)[C@H](CCC(N)=O)NC(=O)[C@H](Cc2ccc(-c3ccccc3)cc2)NC(=O)[C@H](Cc2ccc(C(=O)O)cc2)NC(=O)[C@H](Cc2cccc(C(F)(F)F)c2)NC(=O)[C@H](CC(=O)O)NC(=O)[C@H](Cc2ccc(OCC(=O)O)cc2)NC(=O)[C@H](Cc2ccc(OCC(=O)O)cc2)NC(=O)CSC[C@@H](C(=O)N[C@@H](CCN)C(=O)NCCOCCOCC(=O)NCCOCCOCC(=O)NCCCCCCCCCCCCCCC(=O)O)NC(=O)[C@H](CO)NC(=O)[C@H](C(C)(C)O)NC(=O)[C@H](CC2CCCCC2)NC(=O)[C@H](CCN)NC1=O [Example 2614] ({CH2CO}-Y(Carboxymethyl)Y(Carboxymethyl)D[Phe(3-CF3)][Phe(4-COOH)][Bip]Q[NMeA][dL][Dab][Cha][Val(3-OH)]SC[Dab][AEEA][AEEA]-{NH(CH2)14COOH}; thioether N-14)
46.9 nM	CC(=O)NCCCC[C@@H]1NC(=O)[C@H](C(C)(C)O)NC(=O)[C@H](CC2CCCCC2)NC(=O)[C@H](CCN)NC(=O)[C@@H](CC(C)C)NC(=O)[C@H](C)N(C)C(=O)[C@H](CCC(N)=O)NC(=O)[C@H](Cc2ccc(-c3ccccc3)cc2)NC(=O)[C@H](Cc2ccc(C(=O)O)cc2)NC(=O)[C@H](Cc2cccc(C)c2)NC(=O)[C@H](CC(=O)O)NC(=O)[C@H](Cc2ccc(OCC(=O)O)cc2)NC(=O)[C@H](Cc2ccc(OCC(=O)O)cc2)NC(=O)CSC[C@@H](C(=O)N[C@@H](CCN)C(=O)NCCOCCOCC(=O)N[C@@H](CCC(=O)NCCCCCCCCCCCCCCC(=O)O)C(=O)O)NC1=O [Example 2577] ({CH2CO}-Y(Carboxymethyl)Y(Carboxymethyl)D[Phe(3-Me)][Phe(4-COOH)][Bip]Q[NMeA][dL][Dab][Cha][Val(3-OH)]K(Ac)C[Dab][AEEA]E(NH(CH2)14COOH)-OH; thioether N-14)
